Data taken from US20090155209A1, “NOVEL MACROCYCLIC INHIBITORS OF HEPATITIS C VIRUS REPLICATION” (priority 2007, published 2009).
Values joined by “and” are separate entries in the source; they are usually repeats but may differ in a detail not shown here. Equal entries are not always repeated. Where two headings read alike, the source gives them in different places.

How the values were obtained:
[1] = Compartmental PK model fitted to plasma data of the 400 mg fed cohort; type: in vivo, healthy volunteers (human); conditions: median, compartmental PK parameter
Protocol: The compartmental model was constructed to fit the PK data from the 400 mg, fed cohort only. Candidate PK models were fit to plasma data using weighted, non-linear regression implemented in Adapt 5. (1, 2) Each subjects' data were fit separately for a total of 10 fitted profiles. Model discrimination was accomplished according to the “Rule of Parsimony” based on Akaike's Information Criterion. (3, 4)
The most robust fit to the data was obtained using a three-compartment model (one absorptive, two distributive) with first order absorption and elimination. […] No a priori assumptions regarding the number of phases were made; the fit of the observed data and the AIC were used to guide the selection of a one, two, or three-phase absorption.

HCV = assay: EC90 (viral sensitivity); type: cell-based, hepatitis C virus (HCV); conditions: Hepatitis C virus
[2] = Single ascending dose study, fasted and fed: safety and non-compartmental plasma PK; type: in vivo, healthy volunteers (human); conditions: for AUC0-inf / Cmax / half-life / Tmax: human, plasma, oral; for Tmax: read-out: Tmax
Protocol: A single ascending dose (SAD) study of the compound 100 was conducted in healthy volunteers. The compound 100 was administered as monotherapy both with and without food. The safety and pharmacokinetic profile of the single dose of the compound 100 was assessed.
Interim, blinded data were used for Pharmacokinetic (PK) study relating to food effects. With the exception of the 400 mg cohort, eight subjects were studied at each dose (single doses of 100, 200, or 800 mg of the sodium salt of the compound 100, which may be referred to herein as ITMN-191, administered in the fasting state). In the 400 mg cohort, ten subjects received single 400 mg doses of ITMN-191 under both fasted and fed conditions with a 5-day washout period between dosing. In the 100 mg cohort, subjects were sampled within 1 hour before dosing and at 0.5, 1, 1.5, 2, 2.5, 3, 4, 6, 8, 12, 18, 24, 32 and 48 hours after dosing. For subsequent cohorts, subjects were sampled within 1 hour before dosing and at 0.25, 0.5, 1, 1.5, 2, 2.5, 3, 4, 6, 8, 12, 18, 24, and 32 hours after dosing. Nominal (not actual) sampling times were used for the analysis. PK samples were analyzed using liquid chromatography-tandem mass spectrometry (LC/MS/MS with API 4000 mass spectrometer) following solid-phase extraction. The upper and lower limits of quantitation (ULOQ and LLOQ) are 100 and 0.01 ng/mL, respectively.
Pharmacokinetic parameter estimates were calculated using non-compartmental methods (implemented using Microsoft Excel®). Half-lives were determined by visual inspection of the log concentration-time plots to choose the terminal phase (minimum of three detectable observations). Using linear regression of the chosen terminal phase observations, elimination rate constants were calculated as the negative slope of the regression line and half-life as the natural log of 2 divided by the elimination rate constant.
Ten subjects received single 1600 mg doses of ITMN-191 under both fasted and fed conditions with a 5-day washout period between dosing. For each condition, subjects were sampled within 1 hour before dosing and at 0.25, 0.5, 1, 1.5, 2, 2.5, 3, 4, 6, 8, 12, 18, 24, and 32 hours after dosing. Pharmacokinetic parameter estimates were calculated using non-compartmental methods. Half-life (t1/2) was determined by visual inspection of the log concentration-time plots to choose the terminal phase (minimum of three detectable observations). Using linear regression of the chosen terminal phase observations, elimination rate constants were calculated as the negative slope and half-life as the natural log of 2 divided by the elimination rate constant.

Compound: CC(C)(C)OC(=O)N[C@H]1CCCCC/C=C\[C@@H]2C[C@@]2(C(=O)NS(=O)(=O)C2CC2)NC(=O)[C@@H]2C[C@@H](OC(=O)N3Cc4cccc(F)c4C3)CN2C1=O [ITMN-191]
- half-life ([1]; human, plasma, oral, n = 10, read-out: T1/2,λz (converted)): 1.53 h
- Vd/F ([1]; human, plasma, oral, n = 10, read-out: Vss/F): 2950 L
- CLt/F ([1]; n = 10): 3800 L/h
- Vc/F ([1]; n = 10): 1975 L
- EC90 (HCV): 14.1 nM and 0.0106 µg/mL
- fold increase of median AUC0-inf and Cmax ([2]; 1600 mg fasted versus 800 mg cohort): 3-4 fold
- dose linearity of pharmacokinetics based on AUC0-inf ([2]; dose range of 100-800 mg): linear
- AUC0-inf ([2]; 100 mg, median, single 100 mg dose, fasting state, N=8, read-out: AUC0-inf): 20.4 ng·h/mL
- Cmax ([2]; 100 mg, median, single 100 mg dose, fasting state, N=8, read-out: Cmax): 14.7 ng/mL
- half-life ([2]; 100 mg, median, single 100 mg dose, fasting state, N=8, read-out: T1/2 (converted)): 1.78 h
- Tmax ([2]; 100 mg, median, single 100 mg dose, fasting state, N=8): 0.75 h
- AUC0-inf ([2]; 200 mg, median, single 200 mg dose, fasting state, N=8, read-out: AUC0-inf): 36.8 ng·h/mL
- Cmax ([2]; 200 mg, median, single 200 mg dose, fasting state, N=8, read-out: Cmax): 30.2 ng/mL
- half-life ([2]; 200 mg, median, single 200 mg dose, fasting state, N=8, read-out: T1/2 (converted)): 1.49 h
- Tmax ([2]; 200 mg, median, single 200 mg dose, fasting state, N=8): 0.75 h
- AUC0-inf ([2]; 400 mg, median, single 400 mg dose (Fasted), N=10, read-out: AUC0-inf): 81 ng·h/mL
- Cmax ([2]; 400 mg, median, single 400 mg dose (Fasted), N=10, read-out: Cmax): 63.8 ng/mL
- half-life ([2]; 400 mg, median, single 400 mg dose (Fasted), N=10, read-out: T1/2 (converted)): 1.53 h
- Tmax ([2]; 400 mg, median, single 400 mg dose (Fasted), N=10): 1 h
- AUC0-inf ([2]; 400 mg, median, single 400 mg dose (Fed), N=10, read-out: AUC0-inf): 113 ng·h/mL
- Cmax ([2]; 400 mg, median, single 400 mg dose (Fed), N=10, read-out: Cmax): 56.6 ng/mL
- half-life ([2]; 400 mg, median, single 400 mg dose (Fed), N=10, read-out: T1/2 (converted)): 1.74 h
- Tmax ([2]; 400 mg, median, single 400 mg dose (Fed), N=10): 2.5 h
- AUC0-inf ([2]; 800 mg, 800 mg cohort, fasting, single dose, read-out: median AUC0-inf): 194 ng·h/mL
- Cmax ([2]; 800 mg, 800 mg cohort, fasting, single dose, read-out: median Cmax): 216 ng/mL
- AUC0-inf ([2]; 800 mg, median, single 800 mg dose, fasting state, N=8, read-out: AUC0-inf): 194 ng·h/mL
- Cmax ([2]; 800 mg, median, single 800 mg dose, fasting state, N=8, read-out: Cmax): 216 ng/mL
- half-life ([2]; 800 mg, median, single 800 mg dose, fasting state, N=8, read-out: T1/2 (converted)): 1.91 h
- Tmax ([2]; 800 mg, median, single 800 mg dose, fasting state, N=8): 0.5 h
- AUC0-inf ([2]; 1600 mg, 1600 mg fasted cohort, single dose, read-out: median AUC0-inf): 737 ng·h/mL
- Cmax ([2]; 1600 mg, 1600 mg fasted cohort, single dose, read-out: median Cmax): 685 ng/mL
- AUC0-inf ([2]; 1600 mg, Geometric Mean of 10 subjects, single 1600 mg dose, Fasted, read-out: AUC0-inf): 667 ng·h/mL
- Cmax ([2]; 1600 mg, Geometric Mean of 10 subjects, single 1600 mg dose, Fasted, read-out: Cmax): 538 ng/mL
- half-life ([2]; 1600 mg, Geometric Mean of 10 subjects, single 1600 mg dose, Fasted, read-out: t½ (converted)): 2.38 h
- AUC0-inf ([2]; 1600 mg, Geometric Mean of 10 subjects, single 1600 mg dose, Fed, read-out: AUC0-inf): 1010 ng·h/mL
